Laboratory results from patent US20230255954A1, “INTERLEUKIN 33 (IL-33) INHIBITION FOR TREATMENT OF CANCER, FIBROSIS AND INFLAMMATION” (The General Hospital Corporation, priority 2020, published 2023).

Columns and labels:
Assay type in all cases: cell-based, mouse
[1] = test system: endogenous Il33 expression in PyMT breast cancer cell line; assay: Endogenous Il33 RNA in PyMT breast cancer cell line
Experimental: Pam212 cells were grown at 37° C. in DMEM (Thermo Fisher Scientific, Waltham, Mass., catalog no. 11995065) supplemented with 10% fetal bovine serum (Thermo Fisher Scientific, catalog no. 26140079), 1× penicillin-streptomycin-glutamine (Thermo Fisher Scientific, catalog no. 10378016), 1×MEM non-essential amino acids solution (Thermo Fisher Scientific, catalog no. 11140050), 1×HEPES (Thermo Fisher Scientific, catalog no. 15630080) and 0.1% 2-Mercaptoethanol (Thermo Fisher Scientific, catalog no. 21985023). […]
Mouse dorsal skin samples were homogenized and lysed in RLT lysis solution (QIAGEN, catalog no. 79216)/0.1% MeOH using Mini-BeadBeater-8 (BioSpec Products, Inc., Bartlesville, Okla.). Total RNA was extracted using an RNeasy micro kit and quantified using NanoDrop ND-1100 (NanoDrop Technologies, Wilmington, Del.). cDNA samples were synthesized from 1 μg of total RNA using Invitrogen SuperScripts III Reverse Transcriptase (Thermo Fisher Scientific, catalog no. 18080085). Expression levels of all cDNA samples were determined with LightCycler 480 system (Roche Molecular Systems Inc., Pleasanton, Calif.) using TaqMan Universal Master Mix II (Thermo Fisher Scientific, catalog no. 44-400-40). […]

[2] = test system: IL-33 protein in PyMT cells; assay: IL-33 protein levels in PyMT cells (western blot); details: dose range
Experimental: Pam212 cells were grown at 37° C. in DMEM (Thermo Fisher Scientific, Waltham, Mass., catalog no. 11995065) supplemented with 10% fetal bovine serum (Thermo Fisher Scientific, catalog no. 26140079), 1× penicillin-streptomycin-glutamine (Thermo Fisher Scientific, catalog no. 10378016), 1×MEM non-essential amino acids solution (Thermo Fisher Scientific, catalog no. 11140050), 1×HEPES (Thermo Fisher Scientific, catalog no. 15630080) and 0.1% 2-Mercaptoethanol (Thermo Fisher Scientific, catalog no. 21985023). PyMT cell lines (derived from a primary breast tumor of MMTV-PyMrg mouse on a C57BL/6 background) were grown at 37° C. in RPMI Medium 1640 (Thermo Fisher Scientific, catalog no. 11875093) supplemented with 10% fetal bovine serum, 1× penicillin-streptomycin-glutamine and 0.1% 2-Mercaptoethanol. IL-33 promoter-luci vector (GeneCopoeia, Rockville, Md., catalog no. MPRM3494-PG02) or Control-luci vector (deletion form of IL-33 promoter region from IL-33 promoter-luci vector) or Poly (I:C) (Invivogen, San Diego, Calif., catalog no. tlrl-pic) in Pam212 cells were performed using Lipofectamine 2000 (Thermo Fisher Scientific, catalog no. 11668019) according to the manufacturer's instructions.
Cell lysates were prepared in LIPA buffer (Thermo Fisher Scientific, catalog no. 89900) consisting of 1× protease inhibitor cocktail, EDTA-free (Thermo Fisher Scientific, catalog no. A32955). […]

[3] = test system: p-IRF3 bindings to Il33 promoter region; assay: ChIP assay, p-IRF3 binding to Il33 promoter region in Pam212 cells; details: compared to only Poly (I:C) treated group
Experimental: Pam212 cells that had been transfected with plasmids were fixed in 1% formaldehyde (Millipore Sigma, catalog no. F8775) for 10 min and were washed by cold PBS. Cells were lysed with buffer contained with 2.5% of glycerol, 50 mM HEPES (pH 7.5), 150 mM NaCl, 0.5 mM EDTA, 0.5% NP-40 and 0.25% Triton X-100. After centrifugation at 2,000 rpm, cells lysate were resuspended in buffer A contained with 1 mM Tris/HCl (pH 7.9), 20 mM NaCl and 0.5 mM EDTA and incubated at room temperature for 10 min. Following the second centrifugation at 2,000 rpm, cells were sonicated in sonication buffer containing 10 mM HEPES, 1 mM EDTA and 0.5% SDS for 30 min to achieve chromatin fragmentation. Following centrifugation at 13,000 rpm, proteins were immunoprecipitated with HA antibody at 4° C. overnight. Next day, the samples were incubated with 30 μL 50% slurry of ChIP-Grade Protein G agarose beads (Cell Signaling Technology, catalog no. 9007S) for 2 hours. Samples were precipitated, washed three times with wash buffer containing 20 mM Tris/HCl (pH 7.9), 10 mM NaCl, 2 mM EDTA, 0.1% SDS and Triton X-100. After the last wash step, samples were eluted with 100 μL of TE buffer contained with 100 mM Tris/HCl (pH 8), 1 mM EDTA and 1% SDS for three times. […] Precipitated DNA was purified by CMP DNA Clean & Concentrator (ZYMO research, Irvine, Calif., catalog no. D5205) and subjected to quantitative PCR. […]

O=C(O)C[C@H](O)C[C@H](O)/C=C/c1c(C2CC2)nc2ccccc2c1-c1ccc(F)cc1 [pitavastatin]
endogenous Il33 RNA level [1]: inhibitory effect | endogenous IL-33 protein level [2]: decreased | Poly (I:C) induced p-IRF3 bindings to Il33 promoter region [3]: significantly reduced
